Reference: patent US7094798B1, “Inhibitors of checkpoint kinases (Wee1 and Chk1)” (Pfizer Inc, priority 2002, dated 2006)
Where two headings read alike, the source gives them in different places.

How the values were obtained:
[1] = biological target: T1, human Wee1 kinase aa215-647 (Homo sapiens, UniProt P30291); experiment: Wee1 inhibition filter binding assay (OY); type: biochemical; settings: isolated Wee1 kinase, Poly Ornithine:Tyrosine (4:1) substrate; read-out: WEE1OY IC50
T1 construct: human Wee1 kinase aa215-647; purchased Onyx Pharmaceuticals; host or cells: baculovirus protein expression system
T1 sequence (P30291 215-646 limits assumed): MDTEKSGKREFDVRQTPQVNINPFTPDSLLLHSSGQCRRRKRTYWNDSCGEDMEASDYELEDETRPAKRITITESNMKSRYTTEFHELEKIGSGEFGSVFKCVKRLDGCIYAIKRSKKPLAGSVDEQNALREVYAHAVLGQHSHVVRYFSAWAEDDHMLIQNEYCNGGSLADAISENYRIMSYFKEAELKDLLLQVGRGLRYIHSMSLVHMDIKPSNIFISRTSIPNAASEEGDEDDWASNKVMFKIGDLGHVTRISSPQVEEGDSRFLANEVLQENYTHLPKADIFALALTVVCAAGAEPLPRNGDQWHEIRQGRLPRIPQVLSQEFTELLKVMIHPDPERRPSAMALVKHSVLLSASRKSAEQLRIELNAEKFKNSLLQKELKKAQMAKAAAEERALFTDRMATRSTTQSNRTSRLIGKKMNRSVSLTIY
Protocol: This assay provides a measure of inhibitory ability of the test compounds against isolated Wee1 kinase.
The Wee1 kinase assay measures enzyme mediated phosphorylation of tyrosine on a synthetic peptide substrate in the presence of compounds being tested. […] Compounds were dissolved and diluted in DMSO, 10 μl 3×EDB buffer (150 mM Tris, pH 8.0, 30 mM NaCl, 30 mM MgCl2, 3 mM DTT), 18 μl water, and 2 μl of drug dilution were added to the test wells and mixed thoroughly, 10 μl of enzyme-substrate mixture was added to the wells. […] The plates were mixed thoroughly for 5 minutes at room temperature. […] The reaction was stopped by adding 50 μl of ice cold 20% TCA with 0.1 M tetrasodium pyro-phosphate. Plates were incubated on ice or refrigerated at 4° C. for 1 hour. Liquid reaction mixture was removed on a vacuum manifold, and the precipitated phosphorylated substrate was rinsed 5 times with 200 μl ice cold 10% TCA with 0.1 M tetrasodium pyrophosphate. 25 μl liquid scintillation cocktail were added to the membrane bound substrate and the plate read in a Microbeta (Perkin-Elmer) plate reader. Activity of compounds was calculated in comparison to uninhibited control determinations in each assay.

Chk1 enzyme = biological target: T2, Chk1 enzyme (Homo sapiens, UniProt O14757); experiment: Chk1 enzyme inhibition assay; type: biochemical; settings: isolated Chk1 enzyme, GST-Cdc25 substrate; read-out: CHK1A IC50
T2 construct: purchased Onyx Pharmaceuticals
T2 sequence (O14757 1-476): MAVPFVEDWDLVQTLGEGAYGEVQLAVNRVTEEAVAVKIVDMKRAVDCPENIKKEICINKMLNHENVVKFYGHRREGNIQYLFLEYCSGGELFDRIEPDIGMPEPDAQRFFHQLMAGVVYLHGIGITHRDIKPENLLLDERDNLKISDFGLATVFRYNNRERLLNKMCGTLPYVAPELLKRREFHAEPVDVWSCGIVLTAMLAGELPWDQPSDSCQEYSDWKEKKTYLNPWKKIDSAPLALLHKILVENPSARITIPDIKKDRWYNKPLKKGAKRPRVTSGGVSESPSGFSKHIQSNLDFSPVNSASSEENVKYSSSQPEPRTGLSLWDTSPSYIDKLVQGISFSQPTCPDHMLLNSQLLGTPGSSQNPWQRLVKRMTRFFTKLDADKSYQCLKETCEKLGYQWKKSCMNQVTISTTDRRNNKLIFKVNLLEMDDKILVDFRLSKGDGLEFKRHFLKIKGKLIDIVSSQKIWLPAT
Protocol: The assay was carried out in round bottom polypropylene 96-well plates (Costar). Compounds were tested in serial dilutions beginning with a high concentration of 50 μM followed by up to nine 3-fold dilutions. Compounds were dissolved and diluted in DMSO. 2 μl of drug were spotted on the bottom of the assay plates, then diluted with 58 μl of Chk1 buffer (20 mM Tris, pH 8.0, 50 mM NaCl, 10% Glycerol, 10 mM MgCl2, 5 mM dithiothreitol), and mixed at room temperature for 1 minute. […] Contents of the wells were mixed for 1 minute and incubated at room temperature for 10 minutes. […] The contents were mixed for 1 minute and incubated at 30° C. for 30 minutes. The reaction was stopped by adding 50 μl of 120 mM EDTA to each well, except the control wells already containing EDTA. 140 μl of the contents of the wells were transferred to the wells of Reacti-Bind Glutathione Coated White 96-Well Plates (Pierce). Contents were mixed for 1 minute and incubated at room temperature for 1 hour. All of the wells were rinsed three times each with 300 μl PBS and air dried. 200 μl MicroScint 20 (Packard) was put in the wells. Plates were sealed with an adhesive cover and counted in a Top Count Microplate Scintillation counter (Packard). Activity of compounds was calculated in comparison to uninhibited control determinations in each assay.

[2] = biological target: T3, PKC contained in a rat brain preparation; experiment: Protein Kinase C (PKC) assay; type: biochemical; settings: histone H1 substrate
T3 construct: Enzyme was prepared from a preparation of rat brain (Promega) 0.5 μg diluted with 1.6 ml of 10 mM Hepes buffer pH 7.5
Protocol: The PKC assay provides a measure of inhibitory activity of the test compounds against PKC contained in a rat brain preparation.
Enzyme was prepared from a preparation of rat brain (Promega) 0.5 μg diluted with 1.6 ml of 10 mM Hepes buffer pH 7.5. Reaction buffer was comprised of 150 mM Hepes buffer, 4 mM CaCl2, 15 mM MgCl2, 3 mM EDTA, 3.75 mM EGTA at pH 7.5. Histone substrate was made by dissolving histone H1 (Sigma) in water at 1.5 mg/ml. Phosphatidylserine/diolein liposomes were made by mixing 75 μl of 10 mg/ml phosphatidylserine (Sigma) in CHCl3 with 60 μl of 2.5 mg/ml diolein in CHCl3 (Sigma) in a glass vial and evaporating the CHCl3 under N2. The film was suspended in 1 ml water and sonicated 6×15 sec with a microtip probe at room temperature.
To carry out the assay, 50 μl buffer, 20 μl histone, 20 μl liposomes, and inhibitor or solvent control were added to wells of a 96-well filter plate (Millipore) with enough water, if necessary, to make the final volume 110 μl. 20 μl of enzyme preparation solution were added and incubated for 10 minutes at room temperature. This was followed by the addition of 20 μl of ^32P ATP (75 μM ATP in water, labeled ATP at 25 μCi/ml) which was incubated for 15 minutes at room temperature. The reaction was terminated by the addition of 50 μl of 40% (w/v) trichloroacetic acid. The filters were washed by vacuum filtration with 5×125 μl of ice cold 10% (w/v) trichloroacetic acid. The filters were placed in scintillation fluor and counted to determine precipitated labeled phosphate incorporated into substrate. The percent inhibition was calculated in comparison to the uninhibited controls.

[3] = tested on: L1210 murine leukemia tumor cells; experiment: Cell cycle distribution of L1210 cells treated in vivo; parameters: species or system mice; settings: cisplatin 6 mg/kg, compound of Example 80 20 mg/kg, 24 hours after administration
HT-29 cells [4] = experiment: MPM-2 assay (mitotic index) in cultured HT-29 cells; type: cell-based; settings: compound 312.5 nM
Protocol: This assay uses […] antibody to quantitate the M-phase specific histological markers in the determination of a mitotic index (fraction of cells found in mitosis).
HT-29 cells were grown in Dulbecco's Modified Eagle Medium with high glucose, supplemented with 1 mM sodium pyruvate, 2 mM L-glutamine, 16 mM HEPES, 8 mM MOPS, and 10% fetal bovine serum. They were incubated at 37° C. in an atmosphere of 5% CO2 and 100% relative humidity.
Cells were seeded in 96-well tissue culture plates at 100 μl per well at a concentration of 40,000 per ml. The cells were allowed to attach and begin growing for 24 hours. 100 μl of adriamycin (ADR) at 2 μM (final=1 μM) was added to test cells and the cells incubated for 1 hour as above. Following the incubation, the plates were washed 2 times with growth media. The media was replaced with 100 μl fresh media and incubate a further 16 hours. Serial 2-fold dilutions of potential abrogators were added to the test wells. The rows that received nocodazole (NOC) have 2 μl NOC added at 2.5 μg/ml. The plates were then incubated an additional 6 hours. Following the incubation, the plates were centrifuged for 5 minutes at 4° C. at 200 g. One hundred microliters of Carnoy's fixative, 3 parts methanol to 1 part acetic acid, was added directly to each well and left at room temperature for 15 minutes. The media/fixative mixture was removed by suction and replaced with ice cold ethanol:acetic acid in a 20:1 ratio. The plates were stored at 4° C. until stained.
The fixed cells were stained for MPM-2 using the Upstate Biotechnology MPM-2 rhodamine detection kit per manufacturer's instructions. Briefly, the cells were washed with Dulbecco's phosphate buffered saline (DPBS) with calcium and magnesium followed by incubation with blocking buffer consisting of 8% bovine serum albumen (BSA) for a minimum of 1 hour. The cells were then washed with PBS one time and treated overnight at 4° C. with primary antibody at 5 μg/ml (100 μl per well) diluted with DPBS with 1% BSA. The cells were then washed twice for 15 minutes each with DPBS and then incubated with a 1:1000 dilution of rhodamine conjugated goat antimouse IgG in DPBS with 1% BSA for 1 hour. The secondary antibody was washed off in three 30-minute washes with DPBS. The cells were then counterstained using the Molecular Probes Mycoflour kit to stain nuclei following the instructions for the kit.
The stained cells were viewed under fluorescence microscopy using fluorescence filters suitable for detecting rhodamine and DAPI stains. Images were captured using a Spot digital camera and images analyzed using ImageQuant to quantitate total nuclei and to count MPM-2 positive cells.

HT-29 cells [5] = experiment: Clonogenic assay in HT-29 cells ± Adriamycin; type: cell-based; settings: Homo sapiens, compound 250 nM
Protocol: This cellular assay is a measure of the toxicity of the test compounds in the absence and presence of DNA damage induced by a conventional chemotherapeutic agent.
HT-29 cells were grown in Dulbecco's Modified Eagle Medium with high glucose, supplemented with 1 mM sodium pyruvate, 2 mM L-glutamine, 16 mM HEPES, 8 mM MOPS, and 10% fetal bovine serum. The cells were incubated at 37° C. in an atmosphere of 5% CO2 and 100% relative humidity.
Two or three T-75 tissue culture flasks were seeded at about 50% confluency in 30 ml media and incubated for approximately 24 hours. Adriamycin (ADR) (dissolved at 5 mM in distilled water (dH2O)) was added to the flasks to a final concentration of 1 uM or 500 nM. One flask received no ADR. The cells were allowed to incubate with the ADR for 1 hour. All flasks were then washed twice with 20 ml media allowed to incubate a further 16 hours in 30 ml media.
The stock agar (3.2% Seaplaque GTG Agarose (BioWhittaker Molecular Applications)) was suspended in distilled water and autoclaved for 20 minutes. The agar was melted prior to use in a microwave oven. […]
The cells were trypsinized using Trypsin-EDTA and their concentration adjusted to […] with media. […] The colonies were counted using a Hamamatsu video imaging system and ImageQuant software.

## COc1ccc2[nH]c3c(c2c1)C1C(=O)NC(=O)C1C(c1ccccc1Cl)C3 (mixture of isomers) [Example 68, 4-(2-Chlorophenyl)-9-methoxy-4,5,6,10c-tetrahydropyrrolo[3,4-c]carbazole-1,3(2H,3aH)-dione]
[1]
  IC50: 11 nM
Chk1 enzyme
  IC50: 435 nM
[2]
  IC50: 480 nM

## N.N.[Cl][Pt][Cl] [Cisplatin, reference compound]
[3]
  Cell cycle distribution of L1210 cells, G1: 14.0%
  Cell cycle distribution of L1210 cells, G2M: 59.6%
  Cell cycle distribution of L1210 cells, S: 26.4%

## O=C1NC(=O)c2c1c(-c1ccccc1Cl)cc1c2c2cc(O)ccc2n1CCCO [Example 80, 4-(2-Chlorophenyl)-9-hydroxy-6-(3-hydroxypropyl)pyrrolo[3,4-c]carbazole-1,3(2H,6H)-dione]
[2]
  IC50: 1490 nM
[3]
  Cell cycle distribution of L1210 cells, G1: 60.0%
  Cell cycle distribution of L1210 cells, G2M: 12.4%
  Cell cycle distribution of L1210 cells, S: 27.6%

## O=C1NC(=O)c2c1c(-c1c(Cl)cccc1Cl)cc1c2c2cc(O)ccc2n1CCO [Example 94, 4-(2,6-Dichlorophenyl)-9-Hydroxy-6-(2-hydroxyethyl)pyrrolo[3,4-c]carbazole-1,3(2H,6H)-dione]
[2]
  IC50: 1800 nM

## CN(C)CCNC(=O)CCn1c2ccc(O)cc2c2c3c(c(-c4ccccc4)cc21)C(=O)NC3=O [Example 214, N-[2-(Dimethylamino)ethyl]-3-(9-hydroxy-1,3-dioxo-4-phenyl-2,3-dihydropyrrolo[3,4-c]carbazol-6 (1H)-yl)propanamide]
[2]
  IC50: 171 nM

## O=C(O)CCn1c2ccc(O)cc2c2c3c(c(-c4ccccc4Cl)cc21)C(=O)NC3=O [Example 230, 3-(4-(2-Chlorophenyl)-9-hydroxy-1,3-dioxo-2,3-dihydropyrrolo[3,4-c]carbazol-6 (1H)-yl)propanoic acid]
[2]
  IC50: 1500 nM

## CN(C)CCCOc1cc2c(cc1O)c1c3c(c(-c4ccccc4Cl)cc1n2C)C(=O)NC3=O [Example 363, 4-(2-Chlorophenyl)-8-[3-(dimethylamino)propoxy]-9-hydroxy-6-methylpyrrolo[3,4-c]carbazole-1,3(2H,6H)-dione]
HT-29 cells [4]; 6 hours
  % of cells in M phase, + Media: 26.4%
HT-29 cells [4]; after ADR 1 μM 1 hour and 16 hours
  % of cells in M phase, + ADR: 18.9%
HT-29 cells [4]; after ADR 1 μM, with nocodazole 6 hours
  % of cells in M phase, + ADR + NOC: 86.2%
HT-29 cells [4]; with nocodazole 6 hours
  % of cells in M phase, + NOC: 37.2%

## Cn1c2cc(OCCCN3CCCC3)c(O)cc2c2c3c(c(-c4ccccc4Cl)cc21)C(=O)NC3=O [Example 366, 4-(2-Chlorophenyl)-9-hydroxy-6-methyl-8-[3-(1-pyrrolidinyl)propoxy]pyrrolo[3,4-c]carbazole-1,3(2H,6H)-dione]
HT-29 cells [5]; Adriamycin pretreatment 1 hour, read-out: % of Control Colonies With DNA Damage
  activity at 0.25 µM: 2.8%
HT-29 cells [5]; no Adriamycin, read-out: % of Control Colonies With No DNA Damage
  activity at 0.25 µM: 38%

## O=C1NC(=O)c2c1c(-c1ccccc1)cc1oc3ccc(O)cc3c21 [Example 369, 9-Hydroxy-4-phenyl-1H-[1] benzofuro[3,2-e]isoindole-1,3(2H)-dione]
[2]
  IC50: > 4000 nM
